Data taken from PubChem BioAssay AID2060617 (Molecular Pharmacology Branch, DTP, NCI, 2025).

Tested on: 485368-065-R4-J2-PDC spheroids with HUVEC/MSC, viability
Assay: Anticancer human tumor 485368-065-R4-J2-PDC patient-derived pancreatic carcinoma cell line growth inhibition [CLK]
Conditions: for IC50: curve of first compound; for viability, T/C: stronger effect = lower value
Summary of the method: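 Patient-derived tumor cells grown as complex spheroids with HUVEC endothelial cells and mesenchymal stem cells, treated with drug combinations. Concentrations descend in half-log steps from near clinical Cmax, or from 10 microM if Cmax unknown.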

[1] = second compound 0.0316 µM, first compound 0.0316 µM
[2] = second compound 0.0316 µM, first compound 0.1 µM
[3] = second compound 0.0316 µM, first compound 0.316 µM
[4] = second compound 0.0316 µM, first compound 1 µM
[5] = second compound 0.0316 µM, first compound 3.16 µM
[6] = second compound 0.0316 µM, first compound 10 µM
[7] = second compound 0.1 µM, first compound 0.0316 µM
[8] = second compound 0.1 µM, first compound 0.1 µM
[9] = second compound 0.1 µM, first compound 0.316 µM
[10] = second compound 0.1 µM, first compound 1 µM
[11] = second compound 0.1 µM, first compound 3.16 µM
[12] = second compound 0.1 µM, first compound 10 µM
[13] = second compound 0.316 µM, first compound 0.0316 µM
[14] = second compound 0.316 µM, first compound 0.1 µM
[15] = second compound 0.316 µM, first compound 0.316 µM
[16] = second compound 0.316 µM, first compound 1 µM
[17] = second compound 0.316 µM, first compound 3.16 µM
[18] = second compound 0.316 µM, first compound 10 µM
[19] = second compound 1 µM, first compound 0.0316 µM
[20] = second compound 1 µM, first compound 0.1 µM
[21] = second compound 1 µM, first compound 0.316 µM
[22] = second compound 1 µM, first compound 1 µM
[23] = second compound 1 µM, first compound 3.16 µM
[24] = second compound 1 µM, first compound 10 µM
[25] = second compound 3.16 µM, first compound 0.0316 µM
[26] = second compound 3.16 µM, first compound 0.1 µM
[27] = second compound 3.16 µM, first compound 0.316 µM
[28] = second compound 3.16 µM, first compound 1 µM
[29] = second compound 3.16 µM, first compound 3.16 µM
[30] = second compound 3.16 µM, first compound 10 µM
[31] = second compound 10 µM, first compound 0.0316 µM
[32] = second compound 10 µM, first compound 0.1 µM
[33] = second compound 10 µM, first compound 0.316 µM
[34] = second compound 10 µM, first compound 1 µM
[35] = second compound 10 µM, first compound 3.16 µM
[36] = second compound 10 µM, first compound 10 µM
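Note: spheroids exposed to compounds for seven days.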
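Throughout, for viability, T/C: 100% = DMSO vehicle control wells.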

## NC(=O)C(=Cn1cnc(-c2cc(C(F)(F)F)cc(C(F)(F)F)c2)n1)c1cncnc1 + CN1CCN(c2cc(C(=O)Nc3cc4cc(-c5cnn(C)c5)ccc4cn3)ccn2)CC1
Second compound 0.0316 µM
  IC50: > 3000 nM
Second compound 0.1 µM
  IC50: 2910 nM
Second compound 0.316 µM
  IC50: 48.1 nM
Second compound 1 µM
  IC50: < 9.49 nM
Second compound 3.16 µM
  IC50: < 9.49 nM
Second compound 10 µM
  IC50: < 9.49 nM
Second compound 0.0316 µM, first compound 0.00949 µM
  viability, T/C: 100%
Second compound 0.0316 µM, first compound 0.03 µM
  viability, T/C: 127%
Second compound 0.0316 µM, first compound 0.0949 µM
  viability, T/C: 173%
Second compound 0.0316 µM, first compound 0.3 µM
  viability, T/C: 170%
Second compound 0.0316 µM, first compound 0.949 µM
  viability, T/C: 142%
Second compound 0.0316 µM, first compound 3 µM
  viability, T/C: 71.4%
Second compound 0.1 µM, first compound 0.00949 µM
  viability, T/C: 109%
Second compound 0.1 µM, first compound 0.03 µM
  viability, T/C: 125%
Second compound 0.1 µM, first compound 0.0949 µM
  viability, T/C: 155%
Second compound 0.1 µM, first compound 0.3 µM
  viability, T/C: 129%
Second compound 0.1 µM, first compound 0.949 µM
  viability, T/C: 79.5%
Second compound 0.1 µM, first compound 3 µM
  viability, T/C: 49.2%
Second compound 0.316 µM, first compound 0.00949 µM
  viability, T/C: 71.2%
Second compound 0.316 µM, first compound 0.03 µM
  viability, T/C: 65.3%
Second compound 0.316 µM, first compound 0.0949 µM
  viability, T/C: 28.8%
Second compound 0.316 µM, first compound 0.3 µM
  viability, T/C: 11.8%
Second compound 0.316 µM, first compound 0.949 µM
  viability, T/C: 4.77%
Second compound 0.316 µM, first compound 3 µM
  viability, T/C: 3.83%
Second compound 1 µM, first compound 0.00949 µM
  viability, T/C: 0.93%
Second compound 1 µM, first compound 0.03 µM
  viability, T/C: 1.37%
Second compound 1 µM, first compound 0.0949 µM
  viability, T/C: 3.35%
Second compound 1 µM, first compound 0.3 µM
  viability, T/C: 7.19%
Second compound 1 µM, first compound 0.949 µM
  viability, T/C: 6.52%
Second compound 1 µM, first compound 3 µM
  viability, T/C: 6.06%
Second compound 3.16 µM, first compound 0.00949 µM
  viability, T/C: 1.64%
Second compound 3.16 µM, first compound 0.03 µM
  viability, T/C: 3.12%
Second compound 3.16 µM, first compound 0.0949 µM
  viability, T/C: 5.78%
Second compound 3.16 µM, first compound 0.3 µM
  viability, T/C: 7.76%
Second compound 3.16 µM, first compound 0.949 µM
  viability, T/C: 10.5%
Second compound 3.16 µM, first compound 3 µM
  viability, T/C: 8.08%
Second compound 10 µM, first compound 0.00949 µM
  viability, T/C: 1.73%
Second compound 10 µM, first compound 0.03 µM
  viability, T/C: 4.63%
Second compound 10 µM, first compound 0.0949 µM
  viability, T/C: 4.7%
Second compound 10 µM, first compound 0.3 µM
  viability, T/C: 7.24%
Second compound 10 µM, first compound 0.949 µM
  viability, T/C: 9.55%
Second compound 10 µM, first compound 3 µM
  viability, T/C: 6.71%

## COC1C=CCC(C)C(C)S(=O)(=O)NC(=O)c2ccc3c(c2)N(CC2CCC21)CC1(CCCc2cc(Cl)ccc21)CO3 (stereo not drawn) + CN1CCN(c2cc(C(=O)Nc3cc4cc(-c5cnn(C)c5)ccc4cn3)ccn2)CC1
Second compound 0.0316 µM
  IC50: > 10000 nM
Second compound 0.1 µM
  IC50: > 10000 nM
Second compound 0.316 µM
  IC50: > 10000 nM
Second compound 1 µM
  IC50: < 31.6 nM
Second compound 3.16 µM
  IC50: < 31.6 nM
Second compound 10 µM
  IC50: < 31.6 nM
[1]
  viability, T/C: 105%
[2]
  viability, T/C: 106%
[3]
  viability, T/C: 106%
[4]
  viability, T/C: 113%
[5]
  viability, T/C: 104%
[6]
  viability, T/C: 91.6%
[7]
  viability, T/C: 117%
[8]
  viability, T/C: 124%
[9]
  viability, T/C: 107%
[10]
  viability, T/C: 114%
[11]
  viability, T/C: 108%
[12]
  viability, T/C: 90.8%
[13]
  viability, T/C: 84%
[14]
  viability, T/C: 86%
[15]
  viability, T/C: 87.2%
[16]
  viability, T/C: 78.6%
[17]
  viability, T/C: 81.8%
[18]
  viability, T/C: 63.5%
[19]
  viability, T/C: 1.08%
[20]
  viability, T/C: 2.18%
[21]
  viability, T/C: 2.96%
[22]
  viability, T/C: 2.24%
[23]
  viability, T/C: 1.88%
[24]
  viability, T/C: 6.49%
[25]
  viability, T/C: 1.15%
[26]
  viability, T/C: 3.34%
[27]
  viability, T/C: 1.27%
[28]
  viability, T/C: 2.24%
[29]
  viability, T/C: 2.02%
[30]
  viability, T/C: 4.8%
[31]
  viability, T/C: 2.15%
[32]
  viability, T/C: 4.22%
[33]
  viability, T/C: 1.64%
[34]
  viability, T/C: 3.68%
[35]
  viability, T/C: 2.18%
[36]
  viability, T/C: 2.71%

## C=CC(=O)N1CCN(c2nc(=O)n(-c3c(C)ccnc3C(C)C)c3nc(-c4c(O)cccc4F)c(F)cc23)C(C)C1 (stereo not drawn) + CNC(=O)c1ccc(Nc2nc(OC3CCCC3)c3c(-c4ccc5nc(C)oc5c4)c[nH]c3n2)c(OC)c1
Second compound 0.0316 µM
  IC50: > 10000 nM
Second compound 0.1 µM
  IC50: > 10000 nM
Second compound 0.316 µM
  IC50: > 10000 nM
Second compound 1 µM
  IC50: > 10000 nM
Second compound 3.16 µM
  IC50: > 10000 nM
Second compound 10 µM
  IC50: > 10000 nM
[1]
  viability, T/C: 94%
[2]
  viability, T/C: 110%
[3]
  viability, T/C: 89.5%
[4]
  viability, T/C: 103%
[5]
  viability, T/C: 93.3%
[6]
  viability, T/C: 98.9%
[7]
  viability, T/C: 105%
[8]
  viability, T/C: 98.5%
[9]
  viability, T/C: 99.8%
[10]
  viability, T/C: 109%
[11]
  viability, T/C: 95.9%
[12]
  viability, T/C: 88.8%
[13]
  viability, T/C: 82%
[14]
  viability, T/C: 92.5%
[15]
  viability, T/C: 92.2%
[16]
  viability, T/C: 95%
[17]
  viability, T/C: 80.8%
[18]
  viability, T/C: 72.8%
[19]
  viability, T/C: 85%
[20]
  viability, T/C: 87.9%
[21]
  viability, T/C: 79.4%
[22]
  viability, T/C: 82.8%
[23]
  viability, T/C: 78.1%
[24]
  viability, T/C: 75.7%
[25]
  viability, T/C: 76.7%
[26]
  viability, T/C: 69.7%
[27]
  viability, T/C: 72.2%
[28]
  viability, T/C: 73.8%
[29]
  viability, T/C: 77.5%
[30]
  viability, T/C: 69.8%
[31]
  viability, T/C: 77.8%
[32]
  viability, T/C: 76.4%
[33]
  viability, T/C: 75%
[34]
  viability, T/C: 74.4%
[35]
  viability, T/C: 74.2%
[36]
  viability, T/C: 67.4%

## COc1c(OCCCN2CCOCC2)ccc2c3n(c(=NC(=O)c4cnc(N)nc4)nc12)CCN3 + CN1CCN(c2cc(C(=O)Nc3cc4cc(-c5cnn(C)c5)ccc4cn3)ccn2)CC1
Second compound 0.0316 µM
  IC50: 245 nM
Second compound 0.1 µM
  IC50: 117 nM
Second compound 0.316 µM
  IC50: 22 nM
Second compound 1 µM
  IC50: < 3.16 nM
Second compound 3.16 µM
  IC50: < 3.16 nM
Second compound 10 µM
  IC50: < 3.16 nM
Second compound 0.0316 µM, first compound 0.00316 µM
  viability, T/C: 102%
Second compound 0.0316 µM, first compound 0.01 µM
  viability, T/C: 113%
[1]
  viability, T/C: 85.8%
[2]
  viability, T/C: 71.3%
[3]
  viability, T/C: 42%
[4]
  viability, T/C: 37.8%
Second compound 0.1 µM, first compound 0.00316 µM
  viability, T/C: 93.7%
Second compound 0.1 µM, first compound 0.01 µM
  viability, T/C: 99.9%
[7]
  viability, T/C: 82.7%
[8]
  viability, T/C: 53.7%
[9]
  viability, T/C: 32.4%
[10]
  viability, T/C: 33.2%
Second compound 0.316 µM, first compound 0.00316 µM
  viability, T/C: 69.4%
Second compound 0.316 µM, first compound 0.01 µM
  viability, T/C: 61.1%
[13]
  viability, T/C: 45.1%
[14]
  viability, T/C: 22.4%
[15]
  viability, T/C: 16.4%
[16]
  viability, T/C: 22.5%
Second compound 1 µM, first compound 0.00316 µM
  viability, T/C: 2.4%
Second compound 1 µM, first compound 0.01 µM
  viability, T/C: 1.65%
[19]
  viability, T/C: 1.92%
[20]
  viability, T/C: 0.96%
[21]
  viability, T/C: 1.07%
[22]
  viability, T/C: 5.51%
Second compound 3.16 µM, first compound 0.00316 µM
  viability, T/C: 1.02%
Second compound 3.16 µM, first compound 0.01 µM
  viability, T/C: 2.04%
[25]
  viability, T/C: 1.56%
[26]
  viability, T/C: 1.95%
[27]
  viability, T/C: 2.07%
[28]
  viability, T/C: 1.38%
Second compound 10 µM, first compound 0.00316 µM
  viability, T/C: 1.34%
Second compound 10 µM, first compound 0.01 µM
  viability, T/C: 2.28%
[31]
  viability, T/C: 3.18%
[32]
  viability, T/C: 3.27%
[33]
  viability, T/C: 2.35%
[34]
  viability, T/C: 2%
